Source: US9732094B2, “Arylquinazolines” (Merck Patent GmbH, priority 2013, dated 2017)
Where two headings read alike, the source gives them in different places.

Key:
Kv11.1 (hERG) = Kv11.1 (hERG) (Homo sapiens (Human), UniProt Q12809); test: Kv11.1 (hERG) ion channel activity (patch clamp assay), HEK293 cells transfected with hERG gene; details: patch clamp, HEK293 transfected with hERG gene
DNA-PK = DNA-PK (Homo sapiens (Human), UniProt P78527); test: DNA-PK assay (biochemical), flashplate 33P-ATP kinase assay; details: enzymatic; 5 μM ATP
Procedure, shortened: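 Reactions ran in streptavidin-coated flashplates and were halted by 200 mM EDTA, with a further 30 min at room temperature before saline washing.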

[1] = biological target: DNA-PK phosphorylation at serine 2056 (Homo sapiens (Human), UniProt P78527); test: DNA-PK phosphorylation at serine 2056 (cellular), bleomycin-treated HCT116 cells, ELISA; assay type: cell-based; details: cellular; HCT116 cells, 10 μM bleomycin, six hours; read-out: IC50 pDNA-PK
Procedure, shortened: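 Chemiluminescent ELISA read-out; phospho-specific signal normalised to total DNA-PKcs. Cells (HCT116) exposed 6 h to test compound plus 10 μM bleomycin to induce double-strand breaks; DMSO control served as blank.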

Sequence of Kv11.1 (hERG) (Q12809 whole entry): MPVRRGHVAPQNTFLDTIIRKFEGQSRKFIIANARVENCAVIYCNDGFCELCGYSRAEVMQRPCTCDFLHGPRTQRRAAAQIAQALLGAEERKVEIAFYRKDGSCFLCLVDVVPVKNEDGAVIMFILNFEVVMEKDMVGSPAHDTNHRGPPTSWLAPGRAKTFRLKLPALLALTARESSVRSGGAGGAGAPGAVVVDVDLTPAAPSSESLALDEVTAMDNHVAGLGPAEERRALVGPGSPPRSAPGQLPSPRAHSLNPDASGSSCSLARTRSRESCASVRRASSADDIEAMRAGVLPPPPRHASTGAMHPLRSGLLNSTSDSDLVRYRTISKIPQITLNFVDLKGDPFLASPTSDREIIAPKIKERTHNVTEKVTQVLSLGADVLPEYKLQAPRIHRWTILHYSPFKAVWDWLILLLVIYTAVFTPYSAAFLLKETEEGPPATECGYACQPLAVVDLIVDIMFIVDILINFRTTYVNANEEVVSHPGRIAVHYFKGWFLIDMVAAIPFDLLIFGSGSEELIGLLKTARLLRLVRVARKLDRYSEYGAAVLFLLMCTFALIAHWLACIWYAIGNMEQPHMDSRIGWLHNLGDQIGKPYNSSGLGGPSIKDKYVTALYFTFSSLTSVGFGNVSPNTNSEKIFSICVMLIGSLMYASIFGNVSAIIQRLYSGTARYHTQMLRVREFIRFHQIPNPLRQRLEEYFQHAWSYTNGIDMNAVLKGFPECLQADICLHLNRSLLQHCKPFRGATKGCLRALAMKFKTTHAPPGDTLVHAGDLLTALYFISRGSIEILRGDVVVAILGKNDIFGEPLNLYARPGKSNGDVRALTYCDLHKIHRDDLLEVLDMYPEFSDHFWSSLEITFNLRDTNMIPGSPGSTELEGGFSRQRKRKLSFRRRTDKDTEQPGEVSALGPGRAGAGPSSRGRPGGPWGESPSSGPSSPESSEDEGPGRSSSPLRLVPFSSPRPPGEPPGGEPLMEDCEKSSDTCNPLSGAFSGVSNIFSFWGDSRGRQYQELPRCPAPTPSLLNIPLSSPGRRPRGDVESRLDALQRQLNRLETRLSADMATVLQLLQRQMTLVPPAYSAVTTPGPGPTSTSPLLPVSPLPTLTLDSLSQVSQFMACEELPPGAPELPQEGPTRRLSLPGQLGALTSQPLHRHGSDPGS

`Cc1nccnc1C(O)c1cc(-c2ncnc3cc(N4CCOCC4)ccc23)c(F)cc1F` (stereo not drawn) [Example 86] was tested, and the Ki (Kv11.1 (hERG); read-out: Ki [Kv1.11 hERG]) was > 25 µM, the IC50 (DNA-PK) was < 0.003 µM and the IC50 [1] was < 0.5 µM.
For `COc1cncnc1C(O)c1ccc(F)c(-c2ncnc3cc(N4CCOCC4)ccc23)c1` (stereo not drawn) [Example 87, [4-Fluoro-3-(7-morpholin-4-yl-quinazolin-4-yl)-phenyl]-(5-methoxy-pyrimidin-4-yl)-methanol], the Ki (Kv11.1 (hERG); Ki [Kv1.11 hERG]) was 15 to 25 µM, the IC50 (DNA-PK) was < 0.003 µM and the IC50 [1] was < 0.5 µM.
With `Cc1cnc(C)c(C(O)c2cc(-c3ncnc4cc(N5CCOCC5)ccc34)c(F)cc2F)n1` (stereo not drawn) [Example 88] the Ki (Kv11.1 (hERG); Ki [Kv1.11 hERG]) was 15 to 25 µM, the IC50 (DNA-PK) was < 0.003 µM and the IC50 [1] was < 0.5 µM.
In the case of `OC(c1cc(-c2ncnc3cc(N4CCOCC4)ccc23)ccc1Cl)c1ncnc2ccsc12` (stereo not drawn) [Example 89, [2-Chloro-5-(7-morpholin-4-yl-quinazolin-4-yl)-phenyl]thieno[3,2-d}-pyrimidin-4-ylmethanol], the Ki (Kv11.1 (hERG); Ki [Kv1.11 hERG]) is reported as 10 to 15 µM, the IC50 (DNA-PK) is reported as 0.003 to 0.007 µM and the IC50 [1] is reported as < 0.5 µM.
For `OC(c1cc(-c2ncnc3cc(N4CCOCC4)ccc23)c(F)cc1F)c1ncnc2sccc12` (stereo not drawn) [Example 90, [2,4-Difluoro-5-(7-morpholin-4-yl-quinazolin-4-yl)-phenyl]thieno[2,3-d}-pyrimidin-4-ylmethanol], the Ki (Kv11.1 (hERG); read-out: Ki [Kv1.11 hERG]) was > 25 µM, the IC50 (DNA-PK) was < 0.003 µM and the IC50 [1] was < 0.5 µM.
With `Cn1c(C(O)c2ccc(F)c(-c3ncnc4cc(N5CCOCC5)ccc34)c2)cccc1=O` (stereo not drawn) [Example 91, 6-{[4-Fluoro-3-(7-morpholin-4-yl-quinazolin-4-yl)-phenyl]hydroxy-methyl}-1-methyl-1H-pyridin-2-one] the Ki (Kv11.1 (hERG); read-out: Ki [Kv1.11 hERG]) was > 25 µM, the IC50 (DNA-PK) was < 0.003 µM and the IC50 [1] was < 0.5 µM.
With `O=c1ccc(C(O)c2cc(-c3ncnc4cc(N5CCOCC5)ccc34)c(F)cc2Cl)n[nH]1` (stereo not drawn) [Example 92, 3-[[2-Chloro-4-fluoro-5-(7-morpholino-quinazolin-4-yl)phenyl]-hydroxymethyl]-1H-pyridazin-6-one] the Ki (Kv11.1 (hERG); read-out: Ki [Kv1.11 hERG]) was > 25 µM, the IC50 (DNA-PK) was < 0.003 µM and the IC50 [1] was < 0.5 µM.
`CCn1nc(C(O)c2cc(-c3ncnc4cc(N5CCOCC5)ccc34)c(F)cc2Cl)ccc1=O` (stereo not drawn) [Example 93, 6-{[2-Chloro-4-fluoro-5-(7-morpholin-4-yl-quinazolin-4-y1)phenyl]-hydroxymethyl}-2-ethyl-2H-pyridazin-3-one] was tested, and the Ki (Kv11.1 (hERG); Ki [Kv1.11 hERG]) was 10 to 15 µM, the IC50 (DNA-PK) was 0.003 to 0.007 µM and the IC50 [1] was < 0.5 µM.
For `NCCn1nc(C(O)c2cc(-c3ncnc4cc(N5CCOCC5)ccc34)c(F)cc2Cl)ccc1=O` (stereo not drawn) [Example 94, 2-(2-Amino-ethyl)-6-{[2-Chloro-4-fluoro-5-(7-morpholin-4-yl-quinazolin-4-yl)phenyl]-hydroxymethyl}-2H-pyridazin-3-one], the Ki (Kv11.1 (hERG); read-out: Ki [Kv1.11 hERG]) was > 25 µM, the IC50 (DNA-PK) was 0.007 to 0.03 µM and the IC50 [1] was 10 to 30 µM.
With `O=c1ccc(C(O)c2cc(-c3ncnc4cc(N5CCOCC5)ccc34)c(F)cc2Cl)nn1C1CC1` (stereo not drawn) [Example 95, 6-{[2-Chloro-4-fluoro-5-(7-morpholin-4-yl-quinazolin-4-yl)phenyl]-hydroxymethyl}-2-cyclopropyl-2H-pyridazin-3-one] the Ki (Kv11.1 (hERG); read-out: Ki [Kv1.11 hERG]) was > 25 µM, the IC50 (DNA-PK) was 0.007 to 0.03 µM and the IC50 [1] was 0.5 to 5 µM.
For `CCn1nc(C(O)c2cc(-c3ncnc4cc(N5CCOCC5)ccc34)c(F)cc2Cl)ccc1=O` (stereo not drawn) [Example 96, 6{[2-Chloro-4-fluoro-5-(7-morpholin-4-yl-quinazolin-4-yl)phenyl]-hydroxymethyl}-2-ethyl-2H-pyridazin-3-one], the Ki (Kv11.1 (hERG); read-out: Ki [Kv1.11 hERG]) was > 25 µM, the IC50 (DNA-PK) was 0.007 to 0.03 µM and the IC50 [1] was 0.5 to 5 µM.
`CCn1nc(C(O)c2cc(-c3ncnc4cc(N5CCOCC5)ccc34)c(F)cc2Cl)ccc1=O` (stereo not drawn) [Example 97, 6-{[2-Chloro-4-fluoro-5-(7-morphohn-4-yl-quinazolin-4-yl)phenyl]-hydroxymethyl}-2-ethyl-2H-pyridazin-3-one] was tested, and the Ki (Kv11.1 (hERG); read-out: Ki [Kv1.11 hERG]) was > 25 µM, the IC50 (DNA-PK) was < 0.003 µM and the IC50 [1] was 0.5 to 5 µM.
`NC(=O)Cn1nc(C(O)c2cc(-c3ncnc4cc(N5CCOCC5)ccc34)c(F)cc2Cl)ccc1=O` (stereo not drawn) [Example 98, 2-{3-{[2-Chloro-4-fluoro-5-(7-morpholin-4-ylquinazolin-4-yl)-phenyl]hydroxymethyl}-6-oxo-6H-pyridazin-1-yl)acetamide] was tested, and the Ki (Kv11.1 (hERG); read-out: Ki [Kv1.11 hERG]) was > 25 µM, the IC50 (DNA-PK) was 0.003 to 0.007 µM and the IC50 [1] was 10 to 30 µM.
In the case of `O=c1ccc(C(O)c2cc(-c3ncnc4cc(N5CCOCC5)ccc34)c(F)cc2Cl)nn1CCO` (stereo not drawn) [Example 99, 6-{[2-Chloro-4-fluoro-5-(7-morpholin-4-yl-quinazolin-4-yl)phenyl]-hydroxymethyl}-2-(2-hydroxy-ethyl)-2H-pyridazin-3-one], the Ki (Kv11.1 (hERG); read-out: Ki [Kv1.11 hERG]) is reported as > 25 µM, the IC50 (DNA-PK) is reported as 0.003 to 0.007 µM and the IC50 [1] is reported as 0.5 to 5 µM.
`CC(C#N)Oc1ccc(C(O)c2cc(-c3ncnc4cc(N5CCOCC5)ccc34)c(F)cc2Cl)nn1` (stereo not drawn) [Example 101, 2-(6-{[2-Chloro-4-fluoro-5-(7-morpholin-4-yl-quinazolin-4-yl)-phenyl)hydroxy-methyl}pyridazin-3-yloxy)propionitrile] was tested, and the Ki (Kv11.1 (hERG); Ki [Kv1.11 hERG]) was 10 to 15 µM, the IC50 (DNA-PK) was < 0.003 µM and the IC50 [1] was < 0.5 µM.
In the case of `OCCOc1nccnc1C(O)c1ccc(F)c(-c2ncnc3cc(N4CCOCC4)ccc23)c1` (stereo not drawn) [Example 105, 2-(3-{[4-fluoro-3-(7-morpholin-4-yl-quinazolin-4-yl)-phenyl]hydroxy-methyl}pyrazin-2-yl-oxy)ethanol], the Ki (Kv11.1 (hERG); read-out: Ki [Kv1.11 hERG]) is reported as > 25 µM, the IC50 (DNA-PK) is reported as 0.007 to 0.03 µM and the IC50 [1] is reported as 10 to 30 µM.
In the case of `OCCNc1nccnc1C(O)c1ccc(F)c(-c2ncnc3cc(N4CCOCC4)ccc23)c1` (stereo not drawn) [Example 106, 2-(3-{[4-fluoro-3-(7-morpholin-4-yl-quinazolin-4-yl)-phenyl]hydroxy-methyl}pyrazin-2-yl-amino)ethanol], the Ki (Kv11.1 (hERG); Ki [Kv1.11 hERG]) is reported as 15 to 25 µM, the IC50 (DNA-PK) is reported as 0.007 to 0.03 µM and the IC50 [1] is reported as 5 to 10 µM.
`N#CCCOc1ccc(C(O)c2cc(-c3ncnc4cc(N5CCOCC5)ccc34)c(F)cc2Cl)nn1` (stereo not drawn) [Example 107, 3-(6-{[2-Chloro-4-fluoro-5-(7-morpholin-4-yl-quinazolin-4-yl)-phenyl]hydroxy-methyl}pyridazin-3-yl-oxy)propionitrile] was tested, and the Ki (Kv11.1 (hERG); read-out: Ki [Kv1.11 hERG]) was > 25 µM, the IC50 (DNA-PK) was 0.003 to 0.007 µM and the IC50 [1] was 0.5 to 5 µM.
With `CSc1ccc(C(O)c2cc(-c3ncnc4cc(N5CCOCC5)ccc34)c(F)cc2Cl)nn1` (stereo not drawn) [Example 108, [2-Chloro-4-fluoro-5-(7-morpholin-4-yl-quinazolin-4-yl)-phenyl]-(6-methyl-sulfanylpyridazin-3-yl)methanol] the Ki (Kv11.1 (hERG); Ki [Kv1.11 hERG]) was 15 to 25 µM, the IC50 (DNA-PK) was 0.003 to 0.007 µM and the IC50 [1] was < 0.5 µM.
With `COc1cc(C)c(C(O)c2cc(-c3ncnc4cc(N5CCOCC5)ccc34)c(F)cc2Cl)nn1` (stereo not drawn) [Example 109, [2-Chloro-4-fluoro-5-(7-morpholin-4-yl-quinazolin-4-yl)-phenyl]-(6-methoxy-4-methylpyridazin-3-yl)methanol] the Ki (Kv11.1 (hERG); read-out: Ki [Kv1.11 hERG]) was > 25 µM, the IC50 (DNA-PK) was > 0.03 µM and the IC50 [1] was 5 to 10 µM.
For `COc1nnc(C(O)c2cc(-c3ncnc4cc(N5CCOCC5)ccc34)c(F)cc2Cl)cc1C` (stereo not drawn) [Example 110, [2-Chloro-4-fluoro-5-(7-morpholin-4-yl-quinazolin-4-yl)-phenyl]-(6-methoxy-5-methylpyridazin-3-yl)methanol], the Ki (Kv11.1 (hERG); Ki [Kv1.11 hERG]) was 10 to 15 µM, the IC50 (DNA-PK) was 0.007 to 0.03 µM and the IC50 [1] was 0.5 to 5 µM.
In the case of `NC(=O)COc1ccc(C(O)c2cc(-c3ncnc4cc(N5CCOCC5)ccc34)c(F)cc2Cl)nn1` (stereo not drawn) [Example 111, 2-(6-{[2-Chloro-4-fluoro-5-(7-morpholin-4-yl-quinazolin-4-yl)-phenyl]hydroxy-methyl}pyridazin-3-yloxy)acetamide], the Ki (Kv11.1 (hERG); read-out: Ki [Kv1.11 hERG]) is reported as > 25 µM, the IC50 (DNA-PK) is reported as 0.003 to 0.007 µM and the IC50 [1] is reported as 5 to 10 µM.
`COCCOc1ccc(C(O)c2cc(-c3ncnc4cc(N5CCOCC5)ccc34)c(F)cc2Cl)nn1` (stereo not drawn) [Example 112, [2-Chloro-4-fluoro-5-(7-morpholin-4-yl-quinazolin-4-yl)-phenyl]-[6-(2-methoxyethoxy)-pyridazin-3-yl]-methanol] was tested, and the Ki (Kv11.1 (hERG); Ki [Kv1.11 hERG]) was 15 to 25 µM, the IC50 (DNA-PK) was < 0.003 µM and the IC50 [1] was 0.5 to 5 µM.
In the case of `O=C(O)COc1ccc(C(O)c2cc(-c3ncnc4cc(N5CCOCC5)ccc34)c(F)cc2Cl)nn1` (stereo not drawn) [Example 113, (6-{[2-Chloro-4-fluoro-5-(7-morpholin-4-yl-quinazolin-4-yl)-phenyl]hydroxy-methyl}pyridazin-3-yl-oxy)acetic acid], the Ki (Kv11.1 (hERG); read-out: Ki [Kv1.11 hERG]) is reported as > 25 µM, the IC50 (DNA-PK) is reported as 0.003 to 0.007 µM and the IC50 [1] is reported as 10 to 30 µM.
With `COC(=O)COc1ccc(C(O)c2cc(-c3ncnc4cc(N5CCOCC5)ccc34)c(F)cc2Cl)nn1` (stereo not drawn) [Example 114, (6-{[2-Chloro-4-fluoro-5-(7-morpholin-4-yl-quinazolin-4-yl)-phenyl]hydroxy-methyl}pyridazin-3-yl-oxy)acetic acid methyl ester] the Ki (Kv11.1 (hERG); read-out: Ki [Kv1.11 hERG]) was > 25 µM, the IC50 (DNA-PK) was 0.003 to 0.007 µM and the IC50 [1] was 10 to 30 µM.
With `OC(c1ccc(OCC(F)(F)F)nn1)c1cc(-c2ncnc3cc(N4CCOCC4)ccc23)c(F)cc1Cl` (stereo not drawn) [Example 115, [2-Chloro-4-fluoro-5-(7-morpholin-4-yl-quinazolin-4-yl)-phenyl]-[6-(2,2,2-trifluoroethoxy)-pyridazin-3-yl]-methanol] the Ki (Kv11.1 (hERG); Ki [Kv1.11 hERG]) was 10 to 15 µM, the IC50 (DNA-PK) was 0.003 to 0.007 µM and the IC50 [1] was 0.5 to 5 µM.
`OCCOc1ccc(C(O)c2cc(-c3ncnc4cc(N5CCOCC5)ccc34)c(F)cc2Cl)nn1` (stereo not drawn) [Example 116, 2-(6-{[2-Chloro-4-fluoro-5-(7-morpholin-4-yl-quinazolin-4-yl)-phenyl]hydroxy-methyl}pyridazin-3-yl-oxy)ethanol] was tested, and the Ki (Kv11.1 (hERG); read-out: Ki [Kv1.11 hERG]) was > 25 µM, the IC50 (DNA-PK) was < 0.003 µM and the IC50 [1] was 0.5 to 5 µM.
`Nc1nccnc1C(O)c1cc(-c2ncnc3cc(N4CCOCC4)ccc23)c(F)cc1Cl` (stereo not drawn) [Example 117, (3-Amino-pyrazin-2-yl)-[2-chloro-4-fluoro-5-(7-morpholin-4-yl-quinazolin-4-yl)-phenyl]methanol] was tested, and the Ki (Kv11.1 (hERG); Ki [Kv1.11 hERG]) was 15 to 25 µM, the IC50 (DNA-PK) was 0.003 to 0.007 µM and the IC50 [1] was 0.5 to 5 µM.
